The test concerns production of CD69 by B lymphocytes in human whole blood. As to the kind of experiment: CD69 Whole Blood Assay (CD69 Hu Blood FACS). Type of test: cell-based. Particulars: Lymphocyte, stimulated with goat F(ab')2 anti-human IgM, 20 hours, CD69 positive of CD20 positive cells. An excerpt:
A CD69 Whole Blood Assay can be conducted on Formula I compounds to determine the ability of compounds to inhibit the production of CD69 by B lymphocytes in human whole blood activated by crosslinking surface IgM with goat F(ab′)2 anti-human IgM (Example 907). CD69 is a type II C-type lectin involved in lymphocyte migration and cytokine secretion. CD69 expression represents one of the earliest available indicators of leukocyte activation and its rapid induction occurs through transcriptional activation (Vazquez et al (2009) Jour. of Immunology Published Oct. 19, 2009, doi:10.4049/jimmunol.0900839). Concentration-dependent inhibition of antigen receptor stimulation by selective Btk inhibitors induces cell surface expression of the lymphocyte activation marker CD69 (Honigberg et al (2010) Proc. Natl. Acad. Sci. 107(29):13075-13080). Thus, CD69 inhibition by selective Btk inhibitors may be correlated with therapeutic efficacy of certain B-cell disorders.
Human blood is obtained from healthy volunteers, with the following restrictions: 1 week drug-free, non-smokers. Blood (approximately 20 mls to test 8 compounds) is collected by venipuncture into Vacutainer® (Becton, Dickinson and Co.) tubes with sodium heparin.
Solutions of Formula I compounds at 10 mM in DMSO are diluted 1:10 in 100% DMSO, then are diluted by three-fold serial dilutions in 100% DMSO for a ten point dose-response curve. The compounds are further diluted 1:10 in PBS and then an aliquot of 5.5 μl of each compound is added in duplicate to a 2 ml 96-well plate; 5.5 μl of 10% DMSO in PBS is added as control and no-stimulus wells. Human whole blood—HWB (100 μl) is added to each well. After mixing the plates are incubated at 37° C., 5% CO2, 100% humidity for 30 minutes. Goat F(ab′)2 anti-human IgM (10 μl of a 500 μg/ml solution, 50 μg/ml final) is added to each well (except the no-stimulus wells) with mixing and the plates are incubated for an additional 20 hours. At the end of the 20 hour incubation, samples are incubated with fluorescent labeled antibodies for 30 minutes, at 37° C., 5% CO2, 100% humidity. Include induced control, unstained and single stains for compensation adjustments and initial voltage settings. Samples are then lysed with PharM Lyse™ (BD Biosciences Pharmingen) according to the manufacturer's instructions. Samples are then transferred to a 96 well plate suitable to be run on the BD Biosciences HTS 96 well system on the LSRII machine. Data acquired and Mean Fluorescence Intensity values were obtained using BD Biosciences DIVA Software. Results are initially analyzed by FACS analysis software (Flow Jo).

As to `C[C@H]1CN(C2COC2)CCN1c1ccc(Nc2cc(-c3cc(F)cc(N4CCc5c(cc6n5CCCC6)C4=O)c3CO)cn(C)c2=O)nc1` [Compound 101, (S)-2-(5-fluoro-2-(hydroxymethyl)-3-(1-methyl-5-(5-(2-methyl-4-(oxetan-3-yl)piperazin-1-yl)pyridin-2-ylamino)-6-oxo-1,6-dihydropyridin-3-yl)phenyl)-3,4,6,7,8,9-hexahydropyrido[3,4-b]indolizin-1(2H)-one], the 70% effect concentration (IC70) amounted to 33.8 nM. The value for `C[C@H]1CN(C2COC2)CCN1c1ccc(Nc2cc(-c3cc(F)cc(-n4ncc5c6c(sc5c4=O)CCCC6)c3CO)cn(C)c2=O)nc1` [Compound 102, (S)-5-[5-fluoro-2-(hydroxymethyl)-3(1-methyl-5-(5-(2-methyl-4-(oxetan-3-yl)piperazin-1-yl)pyridin-2-ylamino)-6-oxo-1,6-dihydropyridin-3-yl)phenyl]-8-thia-4,5-diazatricyclo[7.4.0.02,7]trideca-1(9),2(7),3-trien-6-one] was 31 nM. `C[C@H]1CN(C2COC2)CCN1c1ccc(Nc2cc(-c3cc(F)cc(N4CCn5c(cc6c5CC(C)(C)C6)C4=O)c3CO)cn(C)c2=O)nc1` [Compound 103, (2S)-10-[5-fluoro-2-(hydroxymethyl)-3-[1-methyl-5-({5-[2-methyl-4-(oxetan-3-yl)piperazin-1-yl]pyridine-2-yl}amino)-6-oxo-1,6-dihydropyridin-3-yl]phenyl]-4,4-dimethyl-1,10-diazatricyclo[6.4.0.02,6]dodeca-2(6),7-dien-9-one] showed an IC70 of 14.5 nM. The result for `C[C@@H]1CN(c2ccc(Nc3cc(-c4cc(F)cc(N5CCn6c(cc7c6CCCC7)C5=O)c4CO)cn(C)c3=O)nc2)[C@@H](C)CN1C1COC1` [Compound 104, 2-(3-(5-(5-((2S,5R)-2,5-dimethyl-4-(oxetan-3-yl)piperazin-1-yl)pyridin-2-ylamino)-1-methyl-6-oxo-1,6-dihydropyridin-3-yl)-5-fluoro-2-(hydroxymethyl)phenyl)-3,4,6,7,8,9-hexahydropyrazino[1,2-a]indol-1(2H)-one] reads 15 nM.

The compound `CC[C@H]1CN(C2COC2)CCN1c1ccc(Nc2cc(-c3cc(F)cc(N4CCn5c(cc6c5CCCC6)C4=O)c3CO)cn(C)c2=O)nc1` [Compound 105] displayed an IC70 of 8 nM. The value for `C[C@H]1CN(C2COC2)CCN1c1ccc(Nc2cc(-c3cc(F)cc(N4CCn5c(cc6c5CCCC6)C4=O)c3CO)cn(C)c2=O)nc1` [Compound 106, (S)-2-(5-fluoro-2-(hydroxymethyl)-3-(1-methyl-5-(5-(2-methyl-4-(oxetan-3-yl)piperazin-1-yl)pyridin-2-ylamino)-6-oxo-1,6-dihydropyridin-3-yl)phenyl)-3,4,6,7,8,9-hexahydropyrazino[1,2-a]indol-1(2H)-one] was 19 nM. The result for `C[C@H]1CN(c2ccc(Nc3cc(-c4cc(F)cc(N5CCn6c(cc7c6CCCC7)C5=O)c4CO)cn(C)c3=O)nc2)CCN1C` [Compound 107, (S)-2-(3-(5-(5-(3,4-dimethylpiperazin-1-yl)pyridin-2-ylamino)-1-methyl-6-oxo-1,6-dihydropyridin-3-yl)-5-fluoro-2-(hydroxymethyl)phenyl)-3,4,6,7,8,9-hexahydropyrazino[1,2-a]indol-1(2H)-one] reads 44 nM; that for `C[C@@H]1CN(c2ccc(Nc3cc(-c4cc(F)cc(N5CCn6c(cc7c6CCCC7)C5=O)c4CO)cn(C)c3=O)nc2)CCN1C` [Compound 108, (R)-2-(3-(5-(5-(3,4-dimethylpiperazin-1-yl)pyridin-2-ylamino)-1-methyl-6-oxo-1,6-dihydropyridin-3-yl)-5-fluoro-2-(hydroxymethyl)phenyl)-3,4,6,7,8,9-hexahydropyrazino[1,2-a]indol-1(2H)-one], 23 nM.

For the origin of these results see patent publication US9115152B2, “Alkylated piperazine compounds” (Genentech, Inc., priority 2011, dated 2015).
